Laboratory results from PMC5394417, “Investigating the molecular mechanism of positive and negative allosteric modulators in the calcium-sensing receptor dimer” (Scientific Reports, 2017).

Legend:
Assay type in all cases: cell-based
[1] = target: T1, HA-F801A CaSR mutant (ICL3 mutant) (Rattus norvegicus, UniProt P48442, F801A); assay: IP-One assay, HEK293T transiently transfected
T1 construct: mGluR5 signal peptide (N); expressed in transfected cells; host or cells: HEK293T
Description: (§1) Human embryonic kidney (HEK) 293T cells were cultured in DMEM supplemented with 10% dFBS and 1% P/S at 37 °C and 5% CO2. 48 h prior to assay, transient transfection was performed using Lipofectamine 2000 as the transfection reagent. White opaque 96-well culture plates (PerkinElmer, Waltham, MA, USA) were used for the ELISA and the TR-FRET dimerization assay, while clear tissue culture treated 96-well plates (Corning, Corning, NY, USA) were used for the IP-One assay. Both plate types were coated with poly-D-lysine before addition of cells and transfection mix. 0.25 μl/well of Lipofectamine 2000 were diluted in 25 μl/well of Opti-MEM and incubated at room temperature (RT) for 5 min. 0.03 μg/well of DNA was diluted in 25 μl/well of Opti-MEM, and subsequently mixed with the Lipofectamine 2000 dilution and incubated 20 min at RT before addition to the plates. Cell suspensions of 170.000 HEK293T cells/mL were prepared in complete growth medium and 100 μl/well (17.000 cells/well) was added to the plates, which were incubated for 48 h at 37 °C and 5% CO2 before performing assays.
(§2) Functional activity was measured using the IP-One assay, which is an IP1 accumulation assay. For agonist testing, ligands were prepared in final concentrations in ligand buffer (HBSS, 20 mM HEPES, pH 7.4 supplemented with 20 mM LiCl). Cells were washed once with 100 μl/well of assay buffer (HBSS, 20 mM HEPES, pH 7.4) and 50 μl/well of agonist solution was added after which plates were incubated at 37 °C for 30 min. Subsequently, ligand solutions were removed and cells were washed with 100 μl/well of assay buffer. Cell lysis was performed by addition of 30 μl/well of IP-One Conjugate & Lysis Buffer (Cisbio Bioassays, Codolet, France) and plates were incubated at RT for 30 min. Afterwards, 30 μl/well of assay buffer was added to dilute the cell lysate. 10 μl/well of cell lysate was transferred from the 96-well plate to a 384-well Optiplate and 10 μl/well of detection solution (Assay buffer + 2.5% of anti-IP1 antibody cryptate Terbium conjugate + 2.5% IP1-d2 conjugate (Cisbio Bioassays, Codolet, France)) was also added. The 384-well plate was incubated for 1 h at RT in dark before being measured on an EnVision plate reader (PerkinElmer, Waltham, MA, USA). Upon excitation at 340 nm, emission at 615 nm and 665 nm was measured, and the FRET ratio (665 nm/615 nm) was converted to IP1 concentrations by interpolating values from an IP1 standard curve generated from a provided IP1 calibrator (Cisbio Bioassays, Codolet, France). When testing allosteric modulators, cells were pre-incubated for 30 min at 37 °C with 50 μl/well of ligand buffer supplemented with allosteric modulator and a final concentration of 1% DMSO. Afterwards, the buffer solution was removed and 50 μl/well of agonist solution in ligand buffer supplemented with allosteric modulator and a final concentration of 1% DMSO was added. Plates were incubated for 30 min at 37 °C followed by one wash in 100 μl/well of assay buffer. Cell lysis and detection was performed as described above.

HA-CaSR WT + myc CaSR-WT = target: T2, HA-CaSR WT + myc CaSR-WT (Rattus norvegicus, UniProt P48442); assay: IP-One assay, co-expression 1:1 in HEK293T
T2 construct: mGluR5 signal peptide (N); expressed in transfected cells; host or cells: HEK293T
T2 sequence (P48442 20-1079) 1: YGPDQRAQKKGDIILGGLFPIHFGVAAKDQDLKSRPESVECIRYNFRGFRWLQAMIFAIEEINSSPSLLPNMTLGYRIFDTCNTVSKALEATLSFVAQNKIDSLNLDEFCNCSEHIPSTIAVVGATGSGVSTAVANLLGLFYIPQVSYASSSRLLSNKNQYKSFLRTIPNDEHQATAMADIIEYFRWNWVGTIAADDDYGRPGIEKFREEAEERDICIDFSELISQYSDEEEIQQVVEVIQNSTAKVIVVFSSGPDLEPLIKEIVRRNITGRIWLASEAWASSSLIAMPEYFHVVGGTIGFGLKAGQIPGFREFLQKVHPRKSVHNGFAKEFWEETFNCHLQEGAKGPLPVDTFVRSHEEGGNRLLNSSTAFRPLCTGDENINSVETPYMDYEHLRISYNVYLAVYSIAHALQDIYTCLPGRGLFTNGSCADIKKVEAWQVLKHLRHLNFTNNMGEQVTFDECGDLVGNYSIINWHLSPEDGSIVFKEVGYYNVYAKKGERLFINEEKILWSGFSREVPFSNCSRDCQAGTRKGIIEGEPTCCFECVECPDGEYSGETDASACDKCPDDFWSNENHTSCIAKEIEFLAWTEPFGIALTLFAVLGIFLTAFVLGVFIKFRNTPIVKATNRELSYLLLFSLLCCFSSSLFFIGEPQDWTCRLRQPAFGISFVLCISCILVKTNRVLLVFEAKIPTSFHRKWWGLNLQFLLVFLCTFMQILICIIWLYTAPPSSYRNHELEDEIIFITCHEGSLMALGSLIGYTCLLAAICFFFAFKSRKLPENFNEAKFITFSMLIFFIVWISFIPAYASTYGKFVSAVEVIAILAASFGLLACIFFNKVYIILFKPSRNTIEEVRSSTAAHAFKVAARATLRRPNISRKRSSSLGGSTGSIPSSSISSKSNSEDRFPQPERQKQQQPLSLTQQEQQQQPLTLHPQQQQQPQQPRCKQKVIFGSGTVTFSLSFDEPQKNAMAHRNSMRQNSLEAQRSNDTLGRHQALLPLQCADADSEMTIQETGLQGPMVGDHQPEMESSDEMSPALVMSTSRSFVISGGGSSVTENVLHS
T2 sequence (P48442 20-1079) 2: T2 sequence (P48442 20-1079) 1
Description: as §1
as §2, with “Afterwards, the buffer solution was removed and 50 μl/well of agonist solution in ligand buffer supplemented with allosteric modulator and a final concentration of 1% DMSO was added. Plates were incubated for 30 min at 37 °C followed by one wash in 100 μl/well of assay buffer. Cell lysis and detection was performed as described above.” left out

[2] = target: T3, S170A/E837A:F801A heterodimer (Rattus norvegicus, UniProt P48442, E837A/F801A/S170A); assay: IP-One trans-activation assay, co-expression 1:1 in HEK293T
T3 construct: mGluR5 signal peptide (N); expressed in transfected cells; host or cells: HEK293T
Description: as §1, §2

[3] = normalized to maximum response of WT CaSR

T3 sequence (P48442 20-1079 S170A/E837A): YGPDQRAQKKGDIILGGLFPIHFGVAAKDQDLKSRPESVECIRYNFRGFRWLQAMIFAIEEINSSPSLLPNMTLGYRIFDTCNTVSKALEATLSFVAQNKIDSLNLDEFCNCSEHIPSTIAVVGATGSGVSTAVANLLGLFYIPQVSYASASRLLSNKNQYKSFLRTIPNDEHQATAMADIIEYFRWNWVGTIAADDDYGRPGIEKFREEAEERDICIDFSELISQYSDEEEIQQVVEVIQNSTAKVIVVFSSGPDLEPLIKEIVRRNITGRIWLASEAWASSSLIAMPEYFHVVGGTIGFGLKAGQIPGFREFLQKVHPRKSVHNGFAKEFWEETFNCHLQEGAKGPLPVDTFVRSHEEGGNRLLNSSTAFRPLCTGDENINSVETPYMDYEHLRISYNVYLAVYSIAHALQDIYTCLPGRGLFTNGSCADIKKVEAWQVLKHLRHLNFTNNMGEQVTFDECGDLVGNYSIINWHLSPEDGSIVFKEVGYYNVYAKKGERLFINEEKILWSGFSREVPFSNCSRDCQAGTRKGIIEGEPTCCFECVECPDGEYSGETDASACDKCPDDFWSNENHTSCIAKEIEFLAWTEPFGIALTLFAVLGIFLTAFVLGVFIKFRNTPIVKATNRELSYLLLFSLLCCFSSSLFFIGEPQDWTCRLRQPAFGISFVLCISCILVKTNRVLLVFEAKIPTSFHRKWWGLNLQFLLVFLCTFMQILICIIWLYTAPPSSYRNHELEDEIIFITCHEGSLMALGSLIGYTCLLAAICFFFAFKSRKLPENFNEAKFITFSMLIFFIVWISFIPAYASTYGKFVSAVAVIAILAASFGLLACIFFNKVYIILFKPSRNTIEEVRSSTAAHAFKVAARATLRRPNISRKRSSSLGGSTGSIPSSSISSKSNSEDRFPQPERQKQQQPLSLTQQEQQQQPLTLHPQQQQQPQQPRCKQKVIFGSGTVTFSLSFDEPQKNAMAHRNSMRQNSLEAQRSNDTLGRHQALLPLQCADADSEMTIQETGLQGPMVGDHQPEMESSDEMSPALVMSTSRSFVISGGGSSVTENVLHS
T3 sequence (P48442 20-1079 F801A): as the sequence (P48442 20-1079 S170A/E837A) above, with A151S, F782A, A818E counted along it
T1 sequence (P48442 20-1079 F801A): as the sequence (P48442 20-1079 S170A/E837A) above, with A151S, F782A, A818E counted along it

| SMILES | EC50 ([1]; Ca^2+ alone) [µM] | Max ± S.E.M. [1, 3] [%] | EC50 (HA-CaSR WT + myc CaSR-WT; Ca^2+ alone) [µM] | Hill coefficient ± S.E.M. (HA-CaSR WT + myc CaSR-WT; Ca^2+ alone) | pEC50 ± S.E.M. (HA-CaSR WT + myc CaSR-WT; Ca^2+ alone) | Max ± S.E.M. (HA-CaSR WT + myc CaSR-WT; [3]) [%] | potentiation of Ca^2+-mediated response ([2]; S170A/E837A:F801A heterodimer, 0.05, 0.1 and 1 μM NPS R-568) | effect on Ca^2+-mediated response ([2]; S170A/E837A:F801A heterodimer, highest tested concentration of NPS R-568 (1 μM)) |
| --- | --- | --- | --- | --- | --- | --- | --- | --- |
| [Ca+2] [Ca^2+] | > 30000 | 5.8 ± 0.4 | 2980 | 4.24 ± 0.19 | 2.53 ± 0.02 | 100 |  |  |
| COc1cccc([C@@H](C)NCCCc2ccccc2Cl)c1.Cl [NPS R-568, NPS R-568 hydrochloride] |  |  |  |  |  |  | no potentiation was observed | inhibited |
